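Values below derive from 48-hour exposures of cells grown in 96-well plates, with endpoints linearly interpolated between the two concentrations bracketing the appropriate inhibition level. Abbreviation: GI50, concentration required for 50% inhibition of growth. TGI: total growth inhibition.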
What was measured:
Assay in all cases: inhibition of tumour cell growth, NCI panel, 48 h
NCI/ADR-RES ovarian = tested on: NCI/ADR-RES ovarian
HCT-116 colon = tested on: HCT-116 colon
SK-OV-3 ovarian = tested on: SK-OV-3 ovarian
NCI-H522 lung = tested on: NCI-H522 lung
MALME-3M melanoma = tested on: MALME-3M melanoma
HL-60(TB) leukemia = tested on: HL-60(TB) leukemia
NCI-H460 lung = tested on: NCI-H460 lung
MOLT-4 leukemia = tested on: MOLT-4 leukemia
OVCAR-5 ovarian = tested on: OVCAR-5 ovarian
TK-10 renal = tested on: TK-10 renal
HS 578T breast = tested on: HS 578T breast
OVCAR-4 ovarian = tested on: OVCAR-4 ovarian
HCT-15 colon = tested on: HCT-15 colon
CAKI-1 renal = tested on: CAKI-1 renal
MDA-MB-435 = tested on: MDA-MB-435
PC-3 prostate = tested on: PC-3 prostate
A498 renal = tested on: A498 renal
RXF 393 renal = tested on: RXF 393 renal
CCRF-CEM leukemia = tested on: CCRF-CEM leukemia
HT29 colon = tested on: HT29 colon
U251 CNS = tested on: U251 CNS
SF-539 CNS = tested on: SF-539 CNS
K-562 leukemia = tested on: K-562 leukemia
ACHN renal = tested on: ACHN renal
SW-620 colon = tested on: SW-620 colon
UO-31 renal = tested on: UO-31 renal
NCI-H23 lung = tested on: NCI-H23 lung
HOP-92 NSCLC = tested on: HOP-92 NSCLC
NCI-H226 lung = tested on: NCI-H226 lung
UACC-62 melanoma = tested on: UACC-62 melanoma
SK-MEL-2 melanoma = tested on: SK-MEL-2 melanoma
SN12C renal = tested on: SN12C renal
DU-145 prostate = tested on: DU-145 prostate
MDA-MB-231 breast = tested on: MDA-MB-231 breast
M14 melanoma = tested on: M14 melanoma
SR leukemia = tested on: SR leukemia
MCF7 breast = tested on: MCF7 breast
HOP-62 NSCLC = tested on: HOP-62 NSCLC
SK-MEL-5 melanoma = tested on: SK-MEL-5 melanoma
A549 NSCLC = tested on: A549 NSCLC
SF-295 CNS = tested on: SF-295 CNS
OVCAR-3 ovarian = tested on: OVCAR-3 ovarian
SF-268 CNS = tested on: SF-268 CNS
BT-549 breast = tested on: BT-549 breast
OVCAR-8 ovarian = tested on: OVCAR-8 ovarian
SK-MEL-28 melanoma = tested on: SK-MEL-28 melanoma
RPMI-8226 leukemia = tested on: RPMI-8226 leukemia
UACC-257 melanoma = tested on: UACC-257 melanoma
IGROV1 ovarian = tested on: IGROV1 ovarian
COLO 205 colon = tested on: COLO 205 colon
786-0 renal = tested on: 786-0 renal
T-47D breast = tested on: T-47D breast
SNB-19 CNS = tested on: SNB-19 CNS
HCC-2998 colon = tested on: HCC-2998 colon
SNB-75 CNS = tested on: SNB-75 CNS
KM12 colon = tested on: KM12 colon
LOX IMVI melanoma = tested on: LOX IMVI melanoma

## CCOC(=O)Nc1nc2cc(OC)c(OC)c(OC)c2s1
NCI/ADR-RES ovarian
  GI50: > 100 µM
  TGI: > 100 µM
HCT-116 colon
  GI50: > 100 µM
  TGI: > 100 µM
SK-OV-3 ovarian
  GI50: 66.5 µM
  TGI: > 100 µM
NCI-H522 lung
  GI50: > 100 µM
  TGI: > 100 µM
MALME-3M melanoma
  GI50: > 100 µM
  TGI: > 100 µM
HL-60(TB) leukemia
  GI50: > 100 µM
  TGI: > 100 µM
NCI-H460 lung
  GI50: > 100 µM
  TGI: > 100 µM
MOLT-4 leukemia
  GI50: > 100 µM
  TGI: > 100 µM
OVCAR-5 ovarian
  GI50: > 100 µM
  TGI: > 100 µM
TK-10 renal
  GI50: 42.4 µM
  TGI: > 100 µM
HS 578T breast
  GI50: 17.5 µM
  TGI: > 100 µM
OVCAR-4 ovarian
  GI50: > 100 µM
  TGI: > 100 µM
HCT-15 colon
  GI50: > 100 µM
  TGI: > 100 µM
CAKI-1 renal
  GI50: > 100 µM
  TGI: > 100 µM
MDA-MB-435
  GI50: > 100 µM
  TGI: > 100 µM
PC-3 prostate
  GI50: > 100 µM
  TGI: > 100 µM
A498 renal
  GI50: 26.2 µM
  TGI: > 100 µM
RXF 393 renal
  GI50: 49.4 µM
  TGI: > 100 µM
CCRF-CEM leukemia
  GI50: > 100 µM
  TGI: > 100 µM
HT29 colon
  GI50: > 100 µM
  TGI: > 100 µM
U251 CNS
  GI50: 38.7 µM
  TGI: > 100 µM
SF-539 CNS
  GI50: > 100 µM
  TGI: > 100 µM
K-562 leukemia
  GI50: > 100 µM
  TGI: > 100 µM
ACHN renal
  GI50: 46.9 µM
  TGI: > 100 µM
SW-620 colon
  GI50: > 100 µM
  TGI: > 100 µM
UO-31 renal
  GI50: 13.9 µM
  TGI: > 100 µM
NCI-H23 lung
  GI50: 28.5 µM
  TGI: > 100 µM
HOP-92 NSCLC
  GI50: 15.8 µM
  TGI: 74.9 µM
NCI-H226 lung
  GI50: 73.7 µM
  TGI: > 100 µM
UACC-62 melanoma
  GI50: > 100 µM
  TGI: > 100 µM
SK-MEL-2 melanoma
  GI50: 62.6 µM
  TGI: > 100 µM
SN12C renal
  GI50: > 100 µM
  TGI: > 100 µM
DU-145 prostate
  GI50: > 100 µM
  TGI: > 100 µM
MDA-MB-231 breast
  GI50: 31.5 µM
  TGI: > 100 µM
M14 melanoma
  GI50: > 100 µM
  TGI: > 100 µM
SR leukemia
  GI50: > 100 µM
  TGI: > 100 µM
MCF7 breast
  GI50: > 100 µM
  TGI: > 100 µM
HOP-62 NSCLC
  GI50: 24.9 µM
  TGI: 95.6 µM
SK-MEL-5 melanoma
  GI50: > 100 µM
  TGI: > 100 µM
A549 NSCLC
  GI50: > 100 µM
  TGI: > 100 µM
SF-295 CNS
  GI50: 41.4 µM
  TGI: > 100 µM
OVCAR-3 ovarian
  GI50: 51.5 µM
  TGI: > 100 µM
SF-268 CNS
  GI50: 50.4 µM
  TGI: > 100 µM
BT-549 breast
  GI50: > 100 µM
  TGI: > 100 µM
OVCAR-8 ovarian
  GI50: > 100 µM
  TGI: > 100 µM
SK-MEL-28 melanoma
  GI50: > 100 µM
  TGI: > 100 µM
RPMI-8226 leukemia
  GI50: > 100 µM
  TGI: > 100 µM
UACC-257 melanoma
  GI50: > 100 µM
  TGI: > 100 µM
IGROV1 ovarian
  GI50: 91 µM
  TGI: > 100 µM
COLO 205 colon
  GI50: > 100 µM
  TGI: > 100 µM
786-0 renal
  GI50: 61.2 µM
  TGI: > 100 µM
T-47D breast
  GI50: > 100 µM
  TGI: > 100 µM
SNB-19 CNS
  GI50: > 100 µM
  TGI: > 100 µM
HCC-2998 colon
  GI50: > 100 µM
  TGI: > 100 µM
SNB-75 CNS
  GI50: 16.9 µM
  TGI: 64.6 µM
KM12 colon
  GI50: > 100 µM
  TGI: > 100 µM
LOX IMVI melanoma
  GI50: > 100 µM
  TGI: > 100 µM

## C[C@]12CC[C@@H]3c4ccc(O)cc4CC[C@H]3[C@@H]1CC[C@@H]2NS(=O)(=O)c1cccc(OC(F)(F)F)c1
NCI/ADR-RES ovarian
  GI50: 2.59 µM
  TGI: 7.7 µM
HCT-116 colon
  GI50: 1.84 µM
  TGI: 3.53 µM
SK-OV-3 ovarian
  GI50: 3.1 µM
  TGI: 7.68 µM
NCI-H522 lung
  GI50: 2.23 µM
  TGI: 5.42 µM
MALME-3M melanoma
  GI50: 1.99 µM
  TGI: 4.67 µM
HL-60(TB) leukemia
  GI50: 2.18 µM
  TGI: 7.04 µM
NCI-H460 lung
  GI50: 1.89 µM
  TGI: 3.71 µM
MOLT-4 leukemia
  GI50: 2.63 µM
  TGI: 12.1 µM
OVCAR-5 ovarian
  GI50: 1.73 µM
  TGI: 3.2 µM
TK-10 renal
  GI50: 3.45 µM
  TGI: 10.1 µM
HS 578T breast
  GI50: 2.62 µM
  TGI: 10.5 µM
OVCAR-4 ovarian
  GI50: 1.85 µM
  TGI: 4.69 µM
HCT-15 colon
  GI50: 1.65 µM
  TGI: 3.76 µM
CAKI-1 renal
  GI50: 2.11 µM
  TGI: 5.97 µM
MDA-MB-435
  GI50: 1.64 µM
  TGI: 3.02 µM
PC-3 prostate
  GI50: 2.13 µM
  TGI: 8.18 µM
A498 renal
  GI50: 1.23 µM
  TGI: 2.79 µM
RXF 393 renal
  GI50: 1.64 µM
  TGI: 3.6 µM
CCRF-CEM leukemia
  GI50: 3.16 µM
  TGI: 12.3 µM
HT29 colon
  GI50: 2.14 µM
  TGI: 3.94 µM
U251 CNS
  GI50: 2.54 µM
  TGI: 6.94 µM
SF-539 CNS
  GI50: 1.69 µM
  TGI: 3.09 µM
K-562 leukemia
  GI50: 3.35 µM
  TGI: 10.8 µM
ACHN renal
  GI50: 2.45 µM
  TGI: 6.7 µM
SW-620 colon
  GI50: 3.34 µM
  TGI: 12.6 µM
UO-31 renal
  GI50: 1.83 µM
  TGI: 5.46 µM
NCI-H23 lung
  GI50: 2.08 µM
  TGI: 4.87 µM
HOP-92 NSCLC
  GI50: 1.44 µM
  TGI: 3.95 µM
NCI-H226 lung
  GI50: 1.69 µM
  TGI: 3.29 µM
UACC-62 melanoma
  GI50: 2.04 µM
  TGI: 4.7 µM
SK-MEL-2 melanoma
  GI50: 2.18 µM
  TGI: 4.39 µM
SN12C renal
  GI50: 1.65 µM
  TGI: 3.26 µM
DU-145 prostate
  GI50: 3.83 µM
  TGI: 12.1 µM
MDA-MB-231 breast
  GI50: 1.71 µM
  TGI: 3.86 µM
M14 melanoma
  GI50: 2.2 µM
  TGI: 4.89 µM
SR leukemia
  GI50: 3.37 µM
  TGI: 9.92 µM
MCF7 breast
  GI50: 1.47 µM
  TGI: 3.36 µM
HOP-62 NSCLC
  GI50: 1.99 µM
  TGI: 3.59 µM
SK-MEL-5 melanoma
  GI50: 1.7 µM
  TGI: 3.32 µM
A549 NSCLC
  GI50: 2.7 µM
  TGI: 8.24 µM
SF-295 CNS
  GI50: 1.58 µM
  TGI: 3 µM
OVCAR-3 ovarian
  GI50: 2.04 µM
  TGI: 3.99 µM
SF-268 CNS
  GI50: 3.18 µM
  TGI: 13.6 µM
BT-549 breast
  GI50: 1.97 µM
  TGI: 3.66 µM
OVCAR-8 ovarian
  GI50: 2.78 µM
  TGI: 9.06 µM
SK-MEL-28 melanoma
  GI50: 1.76 µM
  TGI: 3.23 µM
RPMI-8226 leukemia
  GI50: 2.38 µM
  TGI: 6.4 µM
UACC-257 melanoma
  GI50: 2.16 µM
  TGI: 6.5 µM
IGROV1 ovarian
  GI50: 3.44 µM
  TGI: 9.19 µM
COLO 205 colon
  GI50: 1.86 µM
  TGI: 3.3 µM
786-0 renal
  GI50: 1.92 µM
  TGI: 3.93 µM
T-47D breast
  GI50: 2.14 µM
  TGI: 5.18 µM
SNB-19 CNS
  GI50: 3.46 µM
  TGI: 16.1 µM
HCC-2998 colon
  GI50: 3.16 µM
  TGI: 9.37 µM
SNB-75 CNS
  GI50: 1.67 µM
  TGI: 4.32 µM
KM12 colon
  GI50: 2.01 µM
  TGI: 4.08 µM
LOX IMVI melanoma
  GI50: 1.77 µM
  TGI: 3.17 µM

— PubChem BioAssay (NCI)
